Assays:
[1] = target: Vascular endothelial growth factor receptor 2 (Homo sapiens, UniProt P35968)
[2] = target: Proto-oncogene tyrosine-protein kinase receptor Ret (Homo sapiens, UniProt P07949); test: RET Kinase Assay
Procedure: The experimental steps are as follows:(1) The test compound (the compound of the present disclosure, and compound 164 in WO2018017983A1 as a control) was dissolved in 100% DMSO to a final concentration of 10 mM.(2) 4 μL of the test compound solution prepared in step (1) was dissolved with 46 μL of 100% DMSO, and the solution obtained in this step was numbered as No. 2.(3) No. 2 solution was subjected to subsequent gradient dilution with a dilution factor of 5 times (i.e. 20 μL of 100% DMSO was added to 5 μL of the compound), a total of 9 gradients, numbered 3 to 11.Note: No. 2 was not used for the dilution in step (4).(Unless otherwise specified, the following steps need to be carried out on ice)(4) The buffer provided in the kit (Cisbio, Cat. No. 62TK0PEB) was used to continuously serially dilute the solutions numbered from 3 to 11 with a dilution factor of 20 times (that is, adding 19 μL of buffer to the solutions numbered from 3 to 11). […] After the incubation, the TF-FRET mode of the microplate reader (BMG Labtech, model: FLUOStar Omega) was adopted to measure the fluorescence intensity at an excitation wavelength of 304 nm and emission wavelengths of 615 nm and […] in each well. […]

Proto-oncogene tyrosine-protein kinase receptor Ret, sequence (P07949 whole entry): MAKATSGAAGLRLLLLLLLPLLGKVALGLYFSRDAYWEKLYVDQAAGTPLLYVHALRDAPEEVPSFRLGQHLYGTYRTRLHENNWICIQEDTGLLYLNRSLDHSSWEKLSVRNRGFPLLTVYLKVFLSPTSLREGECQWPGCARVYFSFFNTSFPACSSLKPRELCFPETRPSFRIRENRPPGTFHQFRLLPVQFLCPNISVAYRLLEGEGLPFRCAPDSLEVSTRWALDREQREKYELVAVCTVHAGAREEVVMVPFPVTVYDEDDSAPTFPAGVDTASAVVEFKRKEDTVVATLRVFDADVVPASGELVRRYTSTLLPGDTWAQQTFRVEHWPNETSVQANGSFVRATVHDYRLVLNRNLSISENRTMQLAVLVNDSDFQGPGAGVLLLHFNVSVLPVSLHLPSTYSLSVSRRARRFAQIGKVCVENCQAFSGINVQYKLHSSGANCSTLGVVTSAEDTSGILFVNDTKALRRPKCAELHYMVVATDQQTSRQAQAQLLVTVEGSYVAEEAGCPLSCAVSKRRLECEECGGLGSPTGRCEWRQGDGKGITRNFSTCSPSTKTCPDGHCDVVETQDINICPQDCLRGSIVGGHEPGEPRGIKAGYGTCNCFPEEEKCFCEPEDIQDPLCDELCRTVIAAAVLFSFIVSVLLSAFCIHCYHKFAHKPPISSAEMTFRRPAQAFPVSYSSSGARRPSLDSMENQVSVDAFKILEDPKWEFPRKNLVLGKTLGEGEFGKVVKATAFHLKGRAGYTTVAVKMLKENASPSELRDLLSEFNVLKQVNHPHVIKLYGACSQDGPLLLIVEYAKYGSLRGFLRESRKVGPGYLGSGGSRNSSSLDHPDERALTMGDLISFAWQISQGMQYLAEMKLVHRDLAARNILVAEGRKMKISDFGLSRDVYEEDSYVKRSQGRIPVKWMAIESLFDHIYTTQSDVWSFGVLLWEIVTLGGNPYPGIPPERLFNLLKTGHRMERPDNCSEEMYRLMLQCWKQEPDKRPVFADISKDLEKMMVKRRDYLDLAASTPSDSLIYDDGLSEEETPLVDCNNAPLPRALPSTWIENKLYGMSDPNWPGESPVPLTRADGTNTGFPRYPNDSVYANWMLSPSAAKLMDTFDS
Vascular endothelial growth factor receptor 2, sequence (P35968 whole entry): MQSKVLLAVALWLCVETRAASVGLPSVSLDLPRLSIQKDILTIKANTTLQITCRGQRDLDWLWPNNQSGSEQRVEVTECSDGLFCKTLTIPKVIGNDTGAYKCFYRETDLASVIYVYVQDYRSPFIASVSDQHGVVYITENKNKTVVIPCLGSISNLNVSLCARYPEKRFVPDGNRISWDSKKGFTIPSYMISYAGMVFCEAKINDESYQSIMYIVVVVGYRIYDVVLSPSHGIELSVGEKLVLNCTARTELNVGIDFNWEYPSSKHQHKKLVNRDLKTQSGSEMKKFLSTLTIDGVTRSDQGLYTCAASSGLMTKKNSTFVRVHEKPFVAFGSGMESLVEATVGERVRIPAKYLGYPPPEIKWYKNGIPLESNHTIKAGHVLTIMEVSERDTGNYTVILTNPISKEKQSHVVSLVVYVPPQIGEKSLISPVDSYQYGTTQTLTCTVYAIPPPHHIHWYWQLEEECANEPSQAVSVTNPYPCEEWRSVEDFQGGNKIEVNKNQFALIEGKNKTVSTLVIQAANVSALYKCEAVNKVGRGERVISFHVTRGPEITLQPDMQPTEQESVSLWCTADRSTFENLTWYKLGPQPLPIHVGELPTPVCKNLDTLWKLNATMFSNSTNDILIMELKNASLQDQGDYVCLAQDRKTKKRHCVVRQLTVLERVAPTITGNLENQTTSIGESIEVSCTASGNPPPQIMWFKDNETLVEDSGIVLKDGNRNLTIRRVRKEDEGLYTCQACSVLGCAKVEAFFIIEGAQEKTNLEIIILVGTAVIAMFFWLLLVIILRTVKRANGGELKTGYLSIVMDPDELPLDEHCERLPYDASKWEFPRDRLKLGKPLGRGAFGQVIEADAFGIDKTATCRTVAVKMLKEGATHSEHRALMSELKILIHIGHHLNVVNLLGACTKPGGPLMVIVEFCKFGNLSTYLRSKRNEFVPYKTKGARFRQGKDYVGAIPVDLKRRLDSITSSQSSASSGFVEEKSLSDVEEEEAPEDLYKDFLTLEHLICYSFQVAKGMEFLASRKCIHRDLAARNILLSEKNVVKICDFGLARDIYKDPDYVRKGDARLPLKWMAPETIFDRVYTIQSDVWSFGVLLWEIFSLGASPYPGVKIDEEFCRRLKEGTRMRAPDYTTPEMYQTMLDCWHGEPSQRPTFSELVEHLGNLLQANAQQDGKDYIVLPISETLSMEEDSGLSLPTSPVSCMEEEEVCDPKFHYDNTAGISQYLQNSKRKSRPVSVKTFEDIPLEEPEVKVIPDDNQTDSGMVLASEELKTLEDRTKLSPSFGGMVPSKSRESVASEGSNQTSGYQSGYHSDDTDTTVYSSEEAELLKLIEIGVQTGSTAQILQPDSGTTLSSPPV

Structure (SMILES)	IC50 [1] [nM]	IC50 [2] [nM]
Cc1cc(Nc2ccnc(N3CC4CCC(C3)N4C(=O)c3ccc(-n4cc(F)cn4)nn3)n2)n[nH]1 [US12234222, Compound I-14]	141	3.9
Cc1cc(Nc2cc(C)[nH]n2)nc(N2CC3CCC(C2)N3C(=O)c2ccc(-n3cc(Cl)cn3)nc2)n1 [US12234222, Compound I-8]	107	1.7

From BindingDB's records for patent US12234222 (Zhejiang Hisun Pharmaceutical, 2025)
